Experimental data from the CheMixHub viscosity set.
± gives the uncertainty stated by the source.

Assay: xn = mol fraction of the nth substance listed

SMILES: CCC(=O)OC + ClC(Cl)C(Cl)Cl
- viscosity (308.15 K, 101.3 kPa, x1 = 0.0501): 1.352 ± 0.01 mPa·s
- viscosity (308.15 K, 101.3 kPa, x1 = 0.1021): 1.296 ± 0.01 mPa·s
- viscosity (308.15 K, 101.3 kPa, x1 = 0.2031): 1.186 ± 0.009 mPa·s
- viscosity (308.15 K, 101.3 kPa, x1 = 0.302): 1.078 ± 0.009 mPa·s
- viscosity (308.15 K, 101.3 kPa, x1 = 0.3398): 1.037 ± 0.008 mPa·s
- viscosity (308.15 K, 101.3 kPa, x1 = 0.5038): 0.865 ± 0.007 mPa·s
- viscosity (308.15 K, 101.3 kPa, x1 = 0.6012): 0.769 ± 0.006 mPa·s
- viscosity (308.15 K, 101.3 kPa, x1 = 0.6946): 0.681 ± 0.006 mPa·s
- viscosity (308.15 K, 101.3 kPa, x1 = 0.7988): 0.591 ± 0.005 mPa·s
- viscosity (308.15 K, 101.3 kPa, x1 = 0.9016): 0.509 ± 0.005 mPa·s
- viscosity (308.15 K, 101.3 kPa, x1 = 0.9481): 0.474 ± 0.004 mPa·s
- viscosity (318.15 K, 101.3 kPa, x1 = 0.0501): 1.214 ± 0.01 mPa·s
- viscosity (318.15 K, 101.3 kPa, x1 = 0.1021): 1.149 ± 0.009 mPa·s
- viscosity (318.15 K, 101.3 kPa, x1 = 0.2031): 1.032 ± 0.008 mPa·s
- viscosity (318.15 K, 101.3 kPa, x1 = 0.302): 0.927 ± 0.008 mPa·s
- viscosity (318.15 K, 101.3 kPa, x1 = 0.3398): 0.889 ± 0.007 mPa·s
- viscosity (318.15 K, 101.3 kPa, x1 = 0.5038): 0.741 ± 0.006 mPa·s
- viscosity (318.15 K, 101.3 kPa, x1 = 0.6012): 0.664 ± 0.006 mPa·s
- viscosity (318.15 K, 101.3 kPa, x1 = 0.6946): 0.597 ± 0.005 mPa·s
- viscosity (318.15 K, 101.3 kPa, x1 = 0.7988): 0.528 ± 0.005 mPa·s
- viscosity (318.15 K, 101.3 kPa, x1 = 0.9016): 0.468 ± 0.004 mPa·s
- viscosity (318.15 K, 101.3 kPa, x1 = 0.9481): 0.443 ± 0.004 mPa·s

SMILES: CCC(=O)OC + Clc1ccccc1
- viscosity (308.15 K, 101.3 kPa, x1 = 0.0485): 0.646 ± 0.004 mPa·s
- viscosity (308.15 K, 101.3 kPa, x1 = 0.0993): 0.635 ± 0.004 mPa·s
- viscosity (308.15 K, 101.3 kPa, x1 = 0.2038): 0.612 ± 0.004 mPa·s
- viscosity (308.15 K, 101.3 kPa, x1 = 0.2614): 0.599 ± 0.004 mPa·s
- viscosity (308.15 K, 101.3 kPa, x1 = 0.4087): 0.567 ± 0.004 mPa·s
- viscosity (308.15 K, 101.3 kPa, x1 = 0.4556): 0.556 ± 0.004 mPa·s
- viscosity (308.15 K, 101.3 kPa, x1 = 0.6041): 0.523 ± 0.004 mPa·s
- viscosity (308.15 K, 101.3 kPa, x1 = 0.7011): 0.503 ± 0.004 mPa·s
- viscosity (308.15 K, 101.3 kPa, x1 = 0.8064): 0.479 ± 0.004 mPa·s
- viscosity (308.15 K, 101.3 kPa, x1 = 0.9054): 0.457 ± 0.004 mPa·s
- viscosity (308.15 K, 101.3 kPa, x1 = 0.9486): 0.448 ± 0.004 mPa·s
- viscosity (318.15 K, 101.3 kPa, x1 = 0.0485): 0.598 ± 0.004 mPa·s
- viscosity (318.15 K, 101.3 kPa, x1 = 0.0993): 0.589 ± 0.004 mPa·s
- viscosity (318.15 K, 101.3 kPa, x1 = 0.2038): 0.57 ± 0.004 mPa·s
- viscosity (318.15 K, 101.3 kPa, x1 = 0.2614): 0.559 ± 0.004 mPa·s
- viscosity (318.15 K, 101.3 kPa, x1 = 0.4087): 0.531 ± 0.004 mPa·s
- viscosity (318.15 K, 101.3 kPa, x1 = 0.4556): 0.522 ± 0.004 mPa·s
- viscosity (318.15 K, 101.3 kPa, x1 = 0.6041): 0.493 ± 0.004 mPa·s
- viscosity (318.15 K, 101.3 kPa, x1 = 0.7011): 0.475 ± 0.004 mPa·s
- viscosity (318.15 K, 101.3 kPa, x1 = 0.8064): 0.454 ± 0.004 mPa·s
- viscosity (318.15 K, 101.3 kPa, x1 = 0.9054): 0.434 ± 0.004 mPa·s
- viscosity (318.15 K, 101.3 kPa, x1 = 0.9486): 0.426 ± 0.004 mPa·s

SMILES: N#Cc1ccccc1 + Cc1ccccc1
- viscosity (303 K, 100 kPa, x1 = 0.1034): 0.5391 ± 0.054 mPa·s
- viscosity (303 K, 100 kPa, x1 = 0.2113): 0.5612 ± 0.056 mPa·s
- viscosity (303 K, 100 kPa, x1 = 0.3332): 0.6226 ± 0.063 mPa·s
- viscosity (303 K, 100 kPa, x1 = 0.409): 0.6592 ± 0.066 mPa·s
- viscosity (303 K, 100 kPa, x1 = 0.5093): 0.7016 ± 0.071 mPa·s
- viscosity (303 K, 100 kPa, x1 = 0.6337): 0.7812 ± 0.079 mPa·s
- viscosity (303 K, 100 kPa, x1 = 0.7569): 0.8795 ± 0.088 mPa·s
- viscosity (303 K, 100 kPa, x1 = 0.879): 0.9682 ± 0.098 mPa·s
- viscosity (308 K, 100 kPa, x1 = 0.1034): 0.5099 ± 0.051 mPa·s
- viscosity (308 K, 100 kPa, x1 = 0.2113): 0.5348 ± 0.054 mPa·s
- viscosity (308 K, 100 kPa, x1 = 0.3332): 0.6121 ± 0.062 mPa·s
- viscosity (308 K, 100 kPa, x1 = 0.409): 0.6589 ± 0.066 mPa·s
- viscosity (308 K, 100 kPa, x1 = 0.5093): 0.7285 ± 0.073 mPa·s
- viscosity (308 K, 100 kPa, x1 = 0.6337): 0.7989 ± 0.08 mPa·s
- viscosity (308 K, 100 kPa, x1 = 0.7569): 0.8621 ± 0.087 mPa·s
- viscosity (308 K, 100 kPa, x1 = 0.879): 0.9325 ± 0.094 mPa·s
- viscosity (313 K, 100 kPa, x1 = 0.1034): 0.5068 ± 0.051 mPa·s
- viscosity (313 K, 100 kPa, x1 = 0.2113): 0.5399 ± 0.054 mPa·s
- viscosity (313 K, 100 kPa, x1 = 0.3332): 0.5908 ± 0.06 mPa·s
- viscosity (313 K, 100 kPa, x1 = 0.409): 0.6325 ± 0.064 mPa·s
- viscosity (313 K, 100 kPa, x1 = 0.5093): 0.6985 ± 0.07 mPa·s
- viscosity (313 K, 100 kPa, x1 = 0.6337): 0.7545 ± 0.076 mPa·s
- viscosity (313 K, 100 kPa, x1 = 0.7569): 0.8319 ± 0.084 mPa·s
- viscosity (313 K, 100 kPa, x1 = 0.879): 0.8819 ± 0.089 mPa·s

SMILES: CCCOCCO + CC(C)O
- viscosity (298.15 K, 101.33 kPa, x1 = 0.0175): 2.056 ± 0.016 mPa·s
- viscosity (298.15 K, 101.33 kPa, x1 = 0.0326): 2.039 ± 0.016 mPa·s
- viscosity (298.15 K, 101.33 kPa, x1 = 0.0724): 2.009 ± 0.015 mPa·s
- viscosity (298.15 K, 101.33 kPa, x1 = 0.0909): 1.994 ± 0.015 mPa·s
- viscosity (298.15 K, 101.33 kPa, x1 = 0.1266): 1.98 ± 0.015 mPa·s
- viscosity (298.15 K, 101.33 kPa, x1 = 0.1696): 1.971 ± 0.016 mPa·s
- viscosity (298.15 K, 101.33 kPa, x1 = 0.2052): 1.967 ± 0.016 mPa·s
- viscosity (298.15 K, 101.33 kPa, x1 = 0.249): 1.967 ± 0.016 mPa·s
- viscosity (298.15 K, 101.33 kPa, x1 = 0.295): 1.97 ± 0.016 mPa·s
- viscosity (298.15 K, 101.33 kPa, x1 = 0.3499): 1.977 ± 0.017 mPa·s
- viscosity (298.15 K, 101.33 kPa, x1 = 0.398): 1.993 ± 0.018 mPa·s
- viscosity (298.15 K, 101.33 kPa, x1 = 0.4072): 1.997 ± 0.018 mPa·s
- viscosity (298.15 K, 101.33 kPa, x1 = 0.4661): 2.019 ± 0.018 mPa·s
- viscosity (298.15 K, 101.33 kPa, x1 = 0.5167): 2.041 ± 0.019 mPa·s
- viscosity (298.15 K, 101.33 kPa, x1 = 0.556): 2.061 ± 0.02 mPa·s
- viscosity (298.15 K, 101.33 kPa, x1 = 0.6058): 2.084 ± 0.021 mPa·s
- viscosity (298.15 K, 101.33 kPa, x1 = 0.6612): 2.119 ± 0.022 mPa·s
- viscosity (298.15 K, 101.33 kPa, x1 = 0.7297): 2.159 ± 0.023 mPa·s
- viscosity (298.15 K, 101.33 kPa, x1 = 0.7751): 2.192 ± 0.024 mPa·s
- viscosity (298.15 K, 101.33 kPa, x1 = 0.8315): 2.23 ± 0.025 mPa·s
- viscosity (298.15 K, 101.33 kPa, x1 = 0.8979): 2.275 ± 0.027 mPa·s
- viscosity (298.15 K, 101.33 kPa, x1 = 0.9565): 2.318 ± 0.028 mPa·s
